# In article PMC3161630, “Targeted Chemotherapy Using a Cytotoxic Somatostatin Conjugate to Inhibit Tumor Growth and Metastasis in Nude Mice” (Clinical Medicine. Oncology, 2008):
# Experiments:
# [1] = system: pancreatic carcinoid BON tumors; assay: Tumor growth, continuous drug-releasing pellets, BON tumors; type: in vivo, nude mice; settings: 5 mg/pellet
# Protocol: The cytotoxic CPT-SST conjugate JF-10-81 was synthesized as described previously. Continuous drug-releasing pellets containing JF-10-81 (5 mg/pellet) formulated to release drug for 60 days, were made by Innovative Research of America (Sarasota, FL).
# Male nude mice, 5–7 weeks of age upon arrival, were purchased from the National Cancer Institute (NCI, Frederik, MD). The animal study was approved by the Tulane University Health Sciences Center Institutional Animal Care and Use Committee (IACUC).
# The tumor tissue segments, grown from CFPAC-1, IMR32, MOLT-4 and BON cells injected into nude mice, were s.c. implanted into the flanks of nude mice as described previously. All the tumors were passaged from mouse to mouse. Tumor-carrying mice then were implanted with continuous drug-releasing pellets containing 5 mg of JF-10-81.
# For treatments of pancreatic cancer CFPAC-1 tumors, mice were separated into 2 groups. Each mouse in the control group was implanted with a placebo pellet. Each mouse in the test group was implanted with a pellet containing JF-10-81 (5 mg/pellet) with a drug-release time of 60 days. Tumor volumes were measured and bodyweights were taken once a week. The treatment for all other tumors (BON, IMR32 and MOLT-4) was the same as above.
# [2] = system: neuroblastoma IMR32 cells; assay: Cell proliferation assay (MTT), IMR32; type: cell-based, human; settings: table: mean ± SEM (n)
# Protocol: (§1) The CHO-R1 and CHO-R2 cell lines, which were transfected with rat SSTR1 and SSTR2, respectively, were a kind gift from Dr. Agnes Schonbrunn (University of Texas—Houston, Houston, TX). Cells were cultured in F-12 medium containing 10% fetal calf serum. All other human tumor cell lines, including neuroblastoma IMR32, leukemia MOLT-4, pancreatic cancer CFPAC-1, prostate cancer PC-3 were purchased from ATCC (American Type Culture Collection, Manassas, VA). Human pancreatic carcinoid BON cells were a kind gift from Dr. Courtney Townsend (University of Texas—Galveston) and cultured as described previously.
# (§2) The kits for the cell proliferation assay (MTT Assay) were purchased from Promega (Madison, WI) and the protocol was the same as described previously.
# [3] = system: pancreatic cancer CFPAC-1 cells; assay: Cell proliferation assay (MTT), CFPAC-1; type: cell-based, human; settings: table: mean ± SEM (n)
# Protocol: as §1, §2
# [4] = system: pancreatic carcinoid BON cells; assay: Cell proliferation assay (MTT), BON; type: cell-based, human; settings: table: mean ± SEM (n)
# Protocol: as §1, §2
# [5] = system: prostate cancer PC-3 cells; assay: Cell proliferation assay (MTT), PC-3; type: cell-based, human; settings: table: mean ± SEM (n)
# Protocol: as §1, §2
# leukemia MOLT-4 cells = assay: Cell proliferation assay (MTT), MOLT-4; type: cell-based, human; settings: table: mean ± SEM (n)
# Protocol: as §1, §2
# [6] = system: non-transfected CHO cells; assay: Ligand-receptor binding assay, non-transfected CHO cells
# Protocol: The assay was performed as a modification of the one previously described. The binding buffer contained Dulbecco’s Modified Eagle’s Medium (DMEM), 50 mM HEPES, 2 mM glutamine, 11.5 mM glucose, 1% bovine serum albumin (BSA) and 5 mM sodium pyruvate. The binding reactions took place in 1.5 ml eppendorf tubes containing 70–100 pM of [^125I]Tyr^11-SST-14 from PerkinElmer (Boston, MA 02118–2512), 1–1.5 × 10^5 cells and the tested SST analogs (10^−5 to 10^−13 M) for a total volume of 300 μl. These were incubated at room temperature for 50–60 minutes and centrifuged for 1–2 min at 9,000 g. The cell pellets were washed twice with phosphate-buffered saline (PBS) and counted for total radioactivity in a Titertek gamma counter (Huntsville, AL). The analyses were done using GraphPad Prism 4.0 (San Diego, […]). For further internalization, cells were then re-suspended and incubated in HBSS (pH4, acetic acid) on ice for 10 min, washed with cold PBS and then re-counted for radioactivity. Due to the radioactivity of membrane-bound receptors being released by the acid wash, the remaining radioactivity represents the internalized peptide.
Compound,"Inhibition (%) ([1]; 42 days, vs placebo)",percentage increase of tumor volumes ([1]; vs initial),"EC50 ([2]; Homo sapiens, IMR-32, MTT assay)",EC50 ([2]; MTT assay),"EC50 ([3]; Homo sapiens, CFPAC-1, MTT assay)",EC50 ([3]; MTT assay),EC50 ([4]; Homo sapiens),EC50 [4],"EC50 ([5]; Homo sapiens, PC-3, MTT assay)",EC50 ([5]; MTT assay),"EC50 (leukemia MOLT-4 cells; Homo sapiens, MOLT-4, MTT assay)",EC50 (leukemia MOLT-4 cells; MTT assay),affinity to the non-transfected CHO cells [6]
"CC[C@@]1(O)C(=O)OCc2c1cc1n(c2=O)Cc2cc3ccccc3nc2-1 [CPT, camptothecin]",42%,278%,2.8 nM,2.82 ± 0.14 nM,25.5 nM,25.5 ± 5.6 nM,171 nM,171 ± 14.6 nM,20.8 nM,20.8 ± 2.82 nM,2 nM,1.96 ± 0.32 nM,
C[C@H](N)C(=O)NCC(=O)N[C@H]1CSSC[C@@H](C(=O)O)NC(=O)[C@H](CO)NC(=O)[C@H]([C@@H](C)O)NC(=O)[C@H](Cc2ccccc2)NC(=O)[C@H]([C@@H](C)O)NC(=O)[C@H](CCCCN)NC(=O)[C@H](Cc2c[nH]c3ccccc23)NC(=O)[C@H](Cc2ccccc2)NC(=O)[C@H](Cc2ccccc2)NC(=O)[C@H](CC(N)=O)NC(=O)[C@H](CCCCN)NC1=O [SST-14],,,,,,,,,,,,,no affinity
